# Laboratory results from patent US9290788B2, “Device for determining or studying the state of stimulation of the natural defences of plants or portions of plants” (Institut National De La Recherche Agronomique, priority 2010, dated 2016).
# Tests used:
# [1] = system: 28 target genes (defense genes) in apple tree leaves; assay: Test 1: relative expression of the 28 defense genes (qPCR, ΔΔCt) in apple tree seedling leaves subjected to NDS treatments and abiotic stresses; assay type: in vivo, apple tree seedlings (Golden Delicious); details: for Relative expression ACCO (log base 2) / Relative expression APOX (log base 2) / Relative expression CAD (log base 2) / Relative expression CHS (log base 2) / Relative expression CSL (log base 2) / Relative expression CalS (log base 2) / Relative expression DFR (log base 2) / Relative expression EDS1 (log base 2) / Relative expression EIN3 (log base 2) / Relative expression FPPS (log base 2) / Relative expression Far (log base 2) / Relative expression GST (log base 2) / Relative expression HMGR (log base 2) / Relative expression JAR (log base 2) / Relative expression LOX2 (log base 2) / Relative expression POX (log base 2) / Relative expression PPO (log base 2) / Relative expression Pect (log base 2) / Relative expression WRKY (log base 2): abiotic stress; for Relative expression of ANS / Relative expression of PAL / Relative expression of PR-1 / Relative expression of PR-2 / Relative expression of PR-4 / Relative expression of PR-5 / Relative expression of PR-8 / Relative expression of PR-14 / Relative expression of PR-15: vs water control, abiotic stress treatment
# [2] = system: 28 target genes (defense genes) in apple tree leaves; assay: Test 2: analysis of defenses, expression of the 28 genes (qPCR) in apple tree seedlings sprayed with 10 NDS candidates, with or without hydrogen peroxide; assay type: in vivo, apple tree seedlings (Golden Delicious)
structure (smiles),measurement,setting,value
"C[n+]1ccc(-c2cc[n+](C)cc2)cc1 [Paraquat, paraquat dichloride x-hydrate]",effect on the modulation of target gene expression (in words),[1]; Test 1,strongly activates some genes
same,Relative expression ACCO (log base 2),"[1]; J1, relative to water control",−1.33
same,Relative expression APOX (log base 2),"[1]; J1, relative to water control",0.00
same,Relative expression CAD (log base 2),"[1]; J1, relative to water control",0.04
same,Relative expression CHS (log base 2),"[1]; J1, relative to water control",−1.56
same,Relative expression CSL (log base 2),"[1]; J1, relative to water control",2.29
same,Relative expression CalS (log base 2),"[1]; J1, relative to water control",0.00
same,Relative expression DFR (log base 2),"[1]; J1, relative to water control",−0.74
same,Relative expression EDS1 (log base 2),"[1]; J1, relative to water control",0.83
same,Relative expression EIN3 (log base 2),"[1]; J1, relative to water control",0.00
same,Relative expression FPPS (log base 2),"[1]; J1, relative to water control",1.02
same,Relative expression Far (log base 2),"[1]; J1, relative to water control",2.76
same,Relative expression GST (log base 2),"[1]; J1, relative to water control",1.99
same,Relative expression HMGR (log base 2),"[1]; J1, relative to water control",2.85
same,Relative expression JAR (log base 2),"[1]; J1, relative to water control",0.00
same,Relative expression LOX2 (log base 2),"[1]; J1, relative to water control",−0.58
same,Relative expression POX (log base 2),"[1]; J1, relative to water control",0.00
same,Relative expression PPO (log base 2),"[1]; J1, relative to water control",0.67
same,Relative expression Pect (log base 2),"[1]; J1, relative to water control",0.00
same,Relative expression WRKY (log base 2),"[1]; J1, relative to water control",4.01
same,Relative expression ACCO (log base 2),"[1]; J2, relative to water control",0.02
same,Relative expression APOX (log base 2),"[1]; J2, relative to water control",2.01
same,Relative expression CAD (log base 2),"[1]; J2, relative to water control",0.27
same,Relative expression CHS (log base 2),"[1]; J2, relative to water control",−1.49
same,Relative expression CSL (log base 2),"[1]; J2, relative to water control",4.42
same,Relative expression CalS (log base 2),"[1]; J2, relative to water control",0.42
same,Relative expression DFR (log base 2),"[1]; J2, relative to water control",−1.14
same,Relative expression EDS1 (log base 2),"[1]; J2, relative to water control",2.89
same,Relative expression EIN3 (log base 2),"[1]; J2, relative to water control",0.21
same,Relative expression FPPS (log base 2),"[1]; J2, relative to water control",0.15
same,Relative expression Far (log base 2),"[1]; J2, relative to water control",2.30
same,Relative expression GST (log base 2),"[1]; J2, relative to water control",1.83
same,Relative expression HMGR (log base 2),"[1]; J2, relative to water control",1.20
same,Relative expression JAR (log base 2),"[1]; J2, relative to water control",−0.81
same,Relative expression LOX2 (log base 2),"[1]; J2, relative to water control",−0.54
same,Relative expression POX (log base 2),"[1]; J2, relative to water control",4.26
same,Relative expression PPO (log base 2),"[1]; J2, relative to water control",6.27
same,Relative expression Pect (log base 2),"[1]; J2, relative to water control",2.17
same,Relative expression WRKY (log base 2),"[1]; J2, relative to water control",6.37
same,Relative expression ACCO (log base 2),"[1]; J3, relative to water control",0.41
same,Relative expression APOX (log base 2),"[1]; J3, relative to water control",1.48
same,Relative expression CAD (log base 2),"[1]; J3, relative to water control",−0.51
same,Relative expression CHS (log base 2),"[1]; J3, relative to water control",−2.04
same,Relative expression CSL (log base 2),"[1]; J3, relative to water control",5.43
same,Relative expression CalS (log base 2),"[1]; J3, relative to water control",0.01
same,Relative expression DFR (log base 2),"[1]; J3, relative to water control",−2.09
same,Relative expression EDS1 (log base 2),"[1]; J3, relative to water control",2.28
same,Relative expression EIN3 (log base 2),"[1]; J3, relative to water control",−0.11
same,Relative expression FPPS (log base 2),"[1]; J3, relative to water control",−1.83
same,Relative expression Far (log base 2),"[1]; J3, relative to water control",1.85
same,Relative expression GST (log base 2),"[1]; J3, relative to water control",0.80
same,Relative expression HMGR (log base 2),"[1]; J3, relative to water control",−0.24
same,Relative expression JAR (log base 2),"[1]; J3, relative to water control",−2.46
same,Relative expression LOX2 (log base 2),"[1]; J3, relative to water control",−2.37
same,Relative expression POX (log base 2),"[1]; J3, relative to water control",−0.53
same,Relative expression PPO (log base 2),"[1]; J3, relative to water control",4.63
same,Relative expression Pect (log base 2),"[1]; J3, relative to water control",−2.82
same,Relative expression WRKY (log base 2),"[1]; J3, relative to water control",2.76
same,Relative expression of ANS,[1]; J1,0.00 log2
same,Relative expression of PAL,[1]; J1,1.99 log2
same,Relative expression of PR-1,[1]; J1,0.55 log2
same,Relative expression of PR-2,[1]; J1,4.09 log2
same,Relative expression of PR-4,[1]; J1,7.10 log2
same,Relative expression of PR-5,[1]; J1,0.00 log2
same,Relative expression of PR-8,[1]; J1,0.00 log2
same,Relative expression of PR-14,[1]; J1,2.61 log2
same,Relative expression of PR-15,[1]; J1,0.00 log2
same,Relative expression of ANS,[1]; J2,−2.09 log2
same,Relative expression of PAL,[1]; J2,2.56 log2
same,Relative expression of PR-1,[1]; J2,3.00 log2
same,Relative expression of PR-2,[1]; J2,5.88 log2
same,Relative expression of PR-4,[1]; J2,6.93 log2
same,Relative expression of PR-5,[1]; J2,−3.05 log2
same,Relative expression of PR-8,[1]; J2,5.12 log2
same,Relative expression of PR-14,[1]; J2,6.04 log2
same,Relative expression of PR-15,[1]; J2,4.77 log2
same,Relative expression of ANS,[1]; J3,−0.78 log2
same,Relative expression of PAL,[1]; J3,0.66 log2
same,Relative expression of PR-1,[1]; J3,0.54 log2
same,Relative expression of PR-2,[1]; J3,2.53 log2
same,Relative expression of PR-4,[1]; J3,6.63 log2
same,Relative expression of PR-5,[1]; J3,−8.56 log2
same,Relative expression of PR-8,[1]; J3,5.36 log2
same,Relative expression of PR-14,[1]; J3,1.28 log2
same,Relative expression of PR-15,[1]; J3,−0.34 log2
OO [H202],ACCO expression,[2]; J2 + H2O2,0.60
same,APOX expression,[2]; J2 + H2O2,−0.37
same,CAD expression,[2]; J2 + H2O2,−0.32
same,CSL expression,[2]; J2 + H2O2,2.28
same,CalS expression,[2]; J2 + H2O2,−0.31
same,EDS1 expression,[2]; J2 + H2O2,1.12
same,EIN3 expression,[2]; J2 + H2O2,−0.20
same,FAR expression,[2]; J2 + H2O2,1.07
same,GST expression,[2]; J2 + H2O2,0.21
same,JAR expression,[2]; J2 + H2O2,−0.62
same,LOX2 expression,[2]; J2 + H2O2,−0.39
same,PECT expression,[2]; J2 + H2O2,0.01
same,POX expression,[2]; J2 + H2O2,2.12
same,WRKY expression,[2]; J2 + H2O2,1.42
same,ACCO expression,[2]; J3 + H2O2,0.37
same,APOX expression,[2]; J3 + H2O2,0.36
same,CAD expression,[2]; J3 + H2O2,0.30
same,CSL expression,[2]; J3 + H2O2,1.32
same,CalS expression,[2]; J3 + H2O2,0.04
same,EDS1 expression,[2]; J3 + H2O2,1.44
same,EIN3 expression,[2]; J3 + H2O2,0.33
same,FAR expression,[2]; J3 + H2O2,0.12
same,GST expression,[2]; J3 + H2O2,0.30
same,JAR expression,[2]; J3 + H2O2,0.09
same,LOX2 expression,[2]; J3 + H2O2,−0.03
same,PECT expression,[2]; J3 + H2O2,1.53
same,POX expression,[2]; J3 + H2O2,1.61
same,WRKY expression,[2]; J3 + H2O2,1.27
